Usually tissue uptake stands for the share of the injected amount in each gram of the tissue. In general, Ki refers to a dissociation constant, usually derived from enzyme kinetics or from competition with a known ligand.

We go through 12 molecules from patent US12246076B2, “Radiolabeled compounds for in vivo imaging of gastrin-releasing peptide receptor (GRPR) and treatment of GRPR-related disorders” (PROVINCIAL HEALTH SERVICES AUTHORITY, priority 2022, dated 2025).

Data set [1] in a line: Ex vivo biodistribution in PC-3 tumor-bearing mice. The following applies: male, mouse, iv, total radioactivity, 1 h post-injection, n = 4; for tissue uptake at 1 h: mice bearing PC-3 tumor xenografts; for tissue to tissue ratio at 1 h: uptake ratio.
Protocol: All imaging and biodistribution studies were performed using male NOD.Cg-Rag1^tm1MoM II2rg^tm1WI/SzJ (NRG) mice and conducted according to the guidelines established by the Canadian Council on Animal Care and approved by Animal Ethics Committee of the University of British Columbia. For tumor inoculations, mice were anesthetized by inhalation with 2% isoflurane in oxygen and implanted subcutaneously with 5×10^6 PC-3 cells below the left shoulder. Imaging and biodistribution studies were performed only after tumors grew to 5-8 mm in diameter.
For PET/CT imaging studies, ˜3-4 MBq of the ^68Ga-labeled tracer was injected through the tail vein. Mice were allowed to recover and roam freely in the cages after injecting the tracer. At 45 min post-injection (p.i.), mice were sedated again and positioned on the scanner. First, a 10 min CT scan was conducted for localization and attenuation correction for reconstruction of PET images, before a 10 min PET image was acquired. Heating pads were used during the entire procedure to keep the mice warm. For ex vivo biodistribution studies, mice were injected with ˜1.5-3 MBq of the ^68Ga-labeled tracer. At 1 h p.i., mice were euthanized, blood was drawn from heart, and organs/tissues of interest were collected, rinsed with PBS, blotted dry, weighed, and counted using an automated gamma counter. The uptake in each organ/tissue was normalized to the injected dose and expressed as the percentage of the injected dose per gram of tissue (% ID/g).
All imaging and biodistribution studies were performed using male NOD.Cg-Rag1tm1Mom II2rgtm1WjI/SzJ (NRG) mice and conducted according to the guidelines established by the Canadian Council on Animal Care and approved by Animal Ethics Committee of the University of British Columbia. For tumor inoculations, mice were anesthetized by inhalation with 2% isoflurane in oxygen and implanted subcutaneously with 5×10^6 PC-3 cells below the left shoulder. Imaging and biodistribution studies were performed only after tumors grew to 5-8 mm in diameter.
For PET/CT imaging studies, ˜5 MBq of the ^68Ga-labeled tracer was injected through the tail vein. Mice were allowed to recover and roam freely in the cages after injecting the tracer. At 45 min post-injection (p.i.), mice were sedated again and positioned on the scanner. First, a 10 min CT scan was conducted for localization and attenuation correction for reconstruction of PET images, before a 10 min PET image was acquired. Heating pads were used during the entire procedure to keep the mice warm. For ex vivo biodistribution studies, mice were injected with ˜3 MBq of the 68Ga-labeled tracer. At 1 h p.i., mice were euthanized, blood was drawn from heart, and organs/tissues of interest were collected, rinsed with PBS, blotted dry, weighed, and counted using an automated gamma counter.
The nature of data set [2]: In vivo plasma stability, radio-HPLC of plasma at 15 min p.i. The following applies: healthy male NRG mice (n=3), 15 min post-injection. The method, then: In vivo plasma stability studies were conducted for ^68Ga-labeled tracers to evaluate metabolic stability at 15 min p.i. Approximately 5.56 to 15.3 MBq of ^68Ga-LW01025, ^68Ga-LW01029, ^68Ga-LW01107, ^68Ga-LW01108, ^68Ga-LW01110, ^68Ga-LW01102, or ^68Ga-LW01142 were injected via tail vein into three male NRG mice, respectively. At 15 min p.i., mice were sedated and euthanized and their blood and urine were collected. The plasma was extracted from whole blood with ACN, vortexed, centrifuged, and the supernatant collected. The plasma and urine were analyzed with radio-HPLC (C18 analytical column; flow rate: 2.0 mL/min). The HPLC condition was same as the HPLC condition for quality control.
The in vivo studies were similarly performed according to the procedure set forth in Example 1. […] The present invention has been described with regard to one or more embodiments.

Data set [3] addresses T1, GRPR (Homo sapiens, UniProt P30550).
T1 construct: endogenous in cells; host or cells: PC-3 prostate cancer cells
The data set can be described thus: In vitro competition binding assay, displacement of [^125I-Tyr^4]bombesin on GRPR-expressing PC-3 cells. The following applies: n = 2-3, read-out: Binding affinities Ki Mean. The method, then: PC-3 cells were seeded at 2×10^5 cells/well in 24-well poly-D-lysine plates 24-48 hours prior to the experiment. The growth medium was replaced by 400 μL of reaction medium (RPMI 1640 containing 2 mg/mL BSA, 4.8 mg/mL HEPES, 1 U/mL penicillin G and 1 μg/mL streptomycin). Cells were incubated for 30-60 min at 37° C. […] The cells were incubated with moderate agitation for 1 h at 27° C., washed twice with ice-cold PBS, harvested by trypsinization, and measured for radioactivity on the gamma counter. Data were analyzed using nonlinear regression (one binding site model for competition assay) with GraphPad Prism 8.
In vitro competition binding assays were performed according to the procedure outlined in Example 1.

Data set [4] deals with T1, GRPR. The following applies: literature (Heimbrook 1991; Lin 1995); cited from earlier work.
Where [5] appears, read: NRG, PC-3 tumor, Biodistribution PC3 tumor Mean.
[6] abbreviates: NRG, adrenal, Biodistribution Adrenal Mean.
Where [7] appears, read: NRG, bone, Biodistribution Bone Mean.
[8] abbreviates: NRG, brain, Biodistribution Brain Mean.
[9] abbreviates: NRG, fat, Biodistribution Fat Mean.
Where [10] appears, read: NRG, heart, Biodistribution Heart Mean.
[11] abbreviates: NRG, kidneys, Biodistribution Kidneys Mean.
Where [12] appears, read: NRG, large intestine, Biodistribution Large Intestine Mean.
Where [13] appears, read: NRG, liver, Biodistribution Liver Mean.
The mark [14] stands for this setting: NRG, lungs, Biodistribution Lungs Mean.
The mark [15] stands for this setting: NRG, muscle, Biodistribution Muscle Mean.
[16] abbreviates: NRG, pancreas, Biodistribution Pancreas Mean.
Where [17] appears, read: NRG, small intestine, Biodistribution Small Intestine Mean.
[18] abbreviates: NRG, spleen, Biodistribution Spleen Mean.
The mark [19] stands for this setting: NRG, stomach, Biodistribution Stomach Mean.
Where [20] appears, read: NRG, testes, Biodistribution Testes Mean.
[21] abbreviates: NRG, whole blood, Biodistribution Blood Mean.

T1 sequence (P30550 whole entry): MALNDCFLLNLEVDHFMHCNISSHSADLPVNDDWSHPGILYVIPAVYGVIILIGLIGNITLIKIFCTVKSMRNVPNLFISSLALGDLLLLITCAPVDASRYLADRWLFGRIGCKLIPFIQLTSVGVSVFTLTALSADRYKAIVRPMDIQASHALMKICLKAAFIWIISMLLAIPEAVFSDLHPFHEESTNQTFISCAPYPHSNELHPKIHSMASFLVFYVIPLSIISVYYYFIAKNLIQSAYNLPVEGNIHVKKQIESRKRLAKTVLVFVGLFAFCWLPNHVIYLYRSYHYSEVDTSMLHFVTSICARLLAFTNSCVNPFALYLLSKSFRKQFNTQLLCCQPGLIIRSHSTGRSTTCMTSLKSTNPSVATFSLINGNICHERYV

As for `CC(C)C[C@@H](CN1CSC[C@H]1C(N)=O)NC(=O)[C@H](Cc1c[nH]cn1)NC(=O)CNC(=O)[C@@H](NC(=O)[C@H](C)NC(=O)[C@H](Cc1c[nH]c2ccccc12)NC(=O)[C@H](CCC(N)=O)NC(=O)[C@@H](Cc1ccccc1)NC(=O)CN1CCC(NC(=O)CN2CCN(CC(=O)O)CCN(CC(=O)O)CCN(CC(=O)O)CC2)CC1)C(C)C` [^68Ga-LW01045, metal not drawn], the tissue uptake at 1 h is 10.2 %ID/g in data set [1] (setting [5]); 0.57 %ID/g in data set [1] (setting [6]); 0.19 %ID/g in data set [1] (setting [7]); 0.05 %ID/g in data set [1] (setting [8]); 0.09 %ID/g in data set [1] (setting [9]); 0.27 %ID/g in data set [1] (setting [10]). The tissue uptake at 1 h in data set [1] (setting [11]) turned out to be 2.51 %ID/g; in data set [1] (setting [12]), 0.37 %ID/g; in data set [1] (setting [13]), 2.61 %ID/g; in data set [1] (setting [14]) it was 0.75 %ID/g; in data set [1] (setting [15]) it was 0.15 %ID/g; in data set [1] (setting [16]), 2.81 %ID/g. Besides, the tissue uptake at 1 h in data set [1] (setting [17]) came to 1.04 %ID/g; in data set [1] (setting [18]) it was 0.47 %ID/g; in data set [1] (setting [19]), 0.32 %ID/g; in data set [1] (setting [20]), 0.19 %ID/g; in data set [1] (setting [21]), 0.76 %ID/g. The “remaining intact in plasma” value in data set [2] was found to be 83.3±1.45%.

Regarding `CC(C)C[C@@H](CN1CSC[C@H]1C(N)=O)NC(=O)[C@H](Cc1cnc[nH]1)NC(=O)CN(C)C(=O)[C@@H](NC(=O)[C@H](C)NC(=O)[C@H](Cc1c[nH]c2ccccc12)NC(=O)[C@H](CCC(N)=O)NC(=O)[C@@H](Cc1ccccc1)NC(=O)CN1CCC(NC(=O)CN2CCN(CC(=O)O)CCN(CC(=O)O)CCN(CC(=O)O)CC2)CC1)C(C)C` [^68Ga-LW01090, metal not drawn], the tissue to tissue ratio at 1 h in data set [1] (NOD.Cg-Rag1tm1Mom Il2rgtm1Wjl/SzJ (NRG), tumor and kidney, Tumor/kidney Mean) was determined as 4.48; in data set [1] (NOD.Cg-Rag1tm1Mom Il2rgtm1Wjl/SzJ (NRG), tumor and pancreas, Tumor/pancreas Mean), 7.95; in data set [1] (NRG, PC-3 tumor / bone, Tumor/bone Mean) it was 175; in data set [1] (NRG, PC-3 tumor / muscle, Tumor/muscle Mean), 82.3. The tissue uptake at 1 h came out at 15.7 %ID/g in data set [1] (setting [5]); 0.58 %ID/g in data set [1] (setting [6]); 0.1 %ID/g in data set [1] (setting [7]); 0.03 %ID/g in data set [1] (setting [8]); 0.11 %ID/g in data set [1] (setting [9]); 0.24 %ID/g in data set [1] (setting [10]). The tissue uptake at 1 h in data set [1] (setting [11]) amounted to 3.52 %ID/g; in data set [1] (setting [12]) it was 0.41 %ID/g; in data set [1] (setting [13]) it was 0.64 %ID/g; in data set [1] (setting [14]), 0.55 %ID/g; in data set [1] (setting [15]), 0.2 %ID/g; in data set [1] (setting [16]), 1.98 %ID/g. In addition, the tissue uptake at 1 h in data set [1] (setting [17]) worked out at 0.66 %ID/g; in data set [1] (setting [18]), 0.3 %ID/g; in data set [1] (setting [19]), 0.4 %ID/g; in data set [1] (setting [20]) it was 0.23 %ID/g; in data set [1] (setting [21]), 0.76 %ID/g. In addition, the “remaining intact in plasma” value in data set [2] is listed as 67.1±4.76%.

As for `CC(C)C[C@H](NC(=O)[C@H](Cc1c[nH]cn1)NC(=O)CNC(=O)[C@@H](NC(=O)[C@H](C)NC(=O)[C@H](Cc1c[nH]c2ccc(F)cc12)NC(=O)[C@H](CCC(N)=O)NC(=O)[C@H](N)Cc1ccccc1)C(C)C)C(=O)N1CSC[C@H]1C(N)=O` [LW01166], the inhibitory constant (Ki) in data set [3] is 17.9 nM.

On to `CC(C)C[C@H](NC(=O)[C@H](Cc1cnc[nH]1)NC(=O)CNC(=O)[C@@H](NC(=O)[C@H](C)NC(=O)[C@H](Cc1c[nH]c2ccccc12)NC(=O)[C@H](CCC(N)=O)NC(=O)[C@H](N)Cc1ccccc1)C(C)C)C(=O)N1CSC[C@H]1C(N)=O` [LW01085], for which, in data set [3], the Ki amounted to 8.77 nM.

For `CC(C)C[C@H](NC(=O)[C@H](Cc1c[nH]cn1)NC(=O)CNC(=O)[C@@H](NC(=O)[C@H](C)NC(=O)[C@H](Cc1c[nH]c2c(F)cccc12)NC(=O)[C@H](CCC(N)=O)NC(=O)[C@H](N)Cc1ccccc1)C(C)C)C(=O)N1CSC[C@H]1C(N)=O` [LW01177, D-Phe-Gln-7-F-Trp-Ala-Val-Gly-His-Leu-Thz-NH2], the Ki in data set [3] was found to be 9.38 nM.

For `CC(C)C[C@H](NC(=O)[C@H](Cc1cnc[nH]1)NC(=O)CNC(=O)[C@@H](NC(=O)[C@H](C)NC(=O)[C@H](Cc1cn(C)c2ccccc12)NC(=O)[C@H](CCC(N)=O)NC(=O)[C@H](N)Cc1ccccc1)C(C)C)C(=O)N1CSC[C@H]1C(N)=O` [LW01136], the Ki in data set [3] was 35.7 nM.

Take `CC(C)C[C@H](NC(=O)[C@H](Cc1cnc[nH]1)N(C)C(=O)CNC(=O)[C@@H](NC(=O)[C@H](C)NC(=O)[C@H](Cc1c[nH]c2ccccc12)NC(=O)[C@H](CCC(N)=O)NC(=O)[C@H](N)Cc1ccccc1)C(C)C)C(=O)N1CSC[C@H]1C(N)=O` [LW01088, D-Phe-Gln-Trp-Ala-Val-Gly-NMe-His-Leu-Thz-NH2]: the Ki in data set [3] amounted to 9 nM.

For litorin, the “binding affinity to the GRPR” value in data set [4] is reported as “very strong binding affinity”.

As to `CC(C)C[C@H](NC(=O)[C@H](Cc1c[nH]cn1)NC(=O)CNC(=O)[C@@H](NC(=O)[C@H](C)NC(=O)[C@H](Cc1c[nH]c2cccc(F)c12)NC(=O)[C@H](CCC(N)=O)NC(=O)[C@H](N)Cc1ccccc1)C(C)C)C(=O)N1CSC[C@H]1C(N)=O` [LW01180], the inhibitory constant (Ki) in data set [3] is 43.4 nM.

For `Cc1cccc2[nH]cc(C[C@H](NC(=O)[C@H](CCC(N)=O)NC(=O)[C@H](N)Cc3ccccc3)C(=O)N[C@@H](C)C(=O)N[C@H](C(=O)NCC(=O)N[C@@H](Cc3c[nH]cn3)C(=O)N[C@@H](CC(C)C)C(=O)N3CSC[C@H]3C(N)=O)C(C)C)c12` [LW01183], the inhibition constant (Ki) in data set [3] was 25.9 nM.

As for `Cc1[nH]c2ccccc2c1C[C@H](NC(=O)[C@H](CCC(N)=O)NC(=O)[C@H](N)Cc1ccccc1)C(=O)N[C@@H](C)C(=O)N[C@H](C(=O)NCC(=O)N[C@@H](Cc1c[nH]cn1)C(=O)N[C@@H](CC(C)C)C(=O)N1CSC[C@H]1C(N)=O)C(C)C` [LW02009, D-Phe-Gln-2-Me-Trp-Ala-Val-Gly-His-Leu-Thz-NH2], the Ki in data set [3] was 11.5 nM.

Consider `Cc1cccc2c(C[C@H](NC(=O)[C@H](CCC(N)=O)NC(=O)[C@H](N)Cc3ccccc3)C(=O)N[C@@H](C)C(=O)N[C@H](C(=O)NCC(=O)N[C@@H](Cc3c[nH]cn3)C(=O)N[C@@H](CC(C)C)C(=O)N3CSC[C@H]3C(N)=O)C(C)C)c[nH]c12` [LW02007], for which the Ki in data set [3] came out at 13.5 nM.
